{"source": "patent US7968526B2", "about": "“Antisense oligonucleotides directed to ribonucleotide reductase R2 and uses thereof in the treatment of cancer” (Lorus Therapeutics Inc., priority 2003, dated 2011)", "assay_type_in_all_cases": "in vivo, human cells in mice", "key": {"[1]": {"test_system": "PC-3 human prostatic cancer cells", "test": "PC-3 prostatic tumour xenograft in SCID mice, combination with mitoxantrone (1.4)", "experimental": "(§1) After 52 days the mice were sacrificed and the tumours weighed. […] In both experiments, PC-3 human prostatic cancer cells (1×10^7 cells in 100 μl of PBS) were subcutaneously injected into the right flank of 6-7 weeks old male SCID mice. After the size of tumour reached an approximate volume of 50 mm^3, 14 days post tumour cell injection, SEQ ID NO: 1 was administered by bolus infusion into the tail vein every other day at 10 mg/kg 18 times (FIG. 4A) or 17 times (FIG. 4B), respectively. Control animals received saline alone for the same period. Antitumour effect of SEQ ID NO:1 was further compared to that of mitoxantrone (novantrone) alone or in combination. Mitoxantrone was administered intravenously once at the beginning of the treatments at a dose of 2 mg/kg (FIG. 4A) or once a week for four weeks at a reduced dose of 0.8 mg/kg (FIG. 4B). All treatments were stopped at day 50 (FIG. 4A) or 48 (FIG. 4B), respectively. A day after the last treatment, tumours were excised from the animals and their weights were measured. […] In both experiments, DU145 human prostatic cancer cells (1×10^7 cells in 100 μl of PBS) were subcutaneously injected into the right flank of 6-7 weeks old male SCID mice. After the size of tumour reached an approximate volume of 50 mm^3, 13 (FIG. 5A) or 11 (FIG. 5B) days post tumour cell injection, SEQ ID NO:1 was administered by bolus infusion into the tail vein every other day at 10 mg/kg 15 times (FIG. 5A) or 14 times (FIG. 5B), respectively. Control animals received saline alone for the same period. Antitumour effect of SEQ ID NO:1 was further compared to that of mitoxantrone (novantrone) alone or in combination. Mitoxantrone was administered intravenously once at the beginning of the treatments at a dose of 2 mg/kg (FIG. 5A) or once a week for four weeks at a reduced dose of 0.8 mg/kg (FIG. 5B). All treatments were stopped at day 42 (FIG. 5A) or 38 (FIG. 5B), respectively. A day after the last treatment, tumours were excised from the animals and their weights were measured."}, "[2]": {"test_system": "DU145 human prostatic cancer cells", "test": "DU145 prostatic tumour xenograft in SCID mice, combination with mitoxantrone (1.5)", "details": "for Tumour weight as % of saline control: DU145 (prostatic), SCID, SEQ ID NO:1 10 mg/kg i.v. every other day, mitoxantrone i.v.", "experimental": "as §1"}, "[3]": {"test_system": "HT-29 human colon cancer cells", "test": "HT-29 colon tumour xenograft in nude mice, combination with CPT-11 (1.2)", "details": "HT-29 (colon), CD-1; SEQ ID NO:1 10 mg/kg i.v. every other day; CPT-11 20 mg/kg i.p. days 7-12", "from_the_text": "All treatments were stopped at day 22. […] All treatments were stopped at day 32. […] All treatments were stopped at day 36."}, "[4]": {"test_system": "LS513 multi-drug resistant colon carcinoma cells", "test": "LS513 multi-drug resistant colon carcinoma xenograft in SCID mice, combination with CPT-11 (2.8)", "details": "LS513 (colon) multi-drug resistant (CPT-11 sensitive), SCID; SEQ ID NO:1 10 mg/kg i.v. every other day; CPT-11 20 mg/kg/day i.p. 5 days", "procedure": "BxPC-3 is a gemcitabine resistant call line. […] Gemcitabine was administered intravenously every three days at a dose of 100 mg/kg. Antitumour activities were estimated by the inhibition of tumour volume, which was measured with caliper. Each point represents mean tumour volume calculated from 10 animals per experimental group. […] Hela S3 is a hydroxyurea resistant cell line. […] Hydroxyurea was administered intraperitoneally every day at a dose of 250 mg/kg for 10 days. Cisplatin was administered intravenously once a week for three weeks at a dose of 4 mg/kg. Antitumour activities were estimated by the inhibition of tumour volume, which was measured with caliper. Each point represents mean tumour volume calculated from 10 animals per experimental group. […] Cisplatin was administered intravenously once a week for three weeks at a dose of 4 mg/kg. Taxol was administered intravenously once a week for three weeks at a dose of 10 mg/kg. Antitumour activities were estimated by the inhibition of tumour volume, which was measured with caliper. Each point represents mean tumour volume calculated from 10 animals per experimental group. […] Taxol was administered i.p. once a week at a dose of 10 mg/kg. Antitumour activities were estimated by the inhibition of tumour volume (FIG. 12A), which was measured with calipers. Each point represents mean tumour volume calculated from 10 animals per experimental group. […] Antitumour activities were estimated by the inhibition of tumour volume, which was measured with caliper. Each point represents mean tumour volume calculated from 9-10 animals per experimental group. […] Antitumour activities were estimated by the inhibition of tumour volume, which was measured with caliper. Each point represents mean tumour volume calculated from 10 animals per experimental group. […] Anti-tumour activity was estimated by the inhibition of tumour volume, which was measured with caliper. Each point represents mean tumour volume calculated from 10 animals per experimental group. […] Antitumour activities were estimated by the inhibition of tumour volume, which was measured with caliper. […]"}}}
{"compound": "O=C1c2c(O)ccc(O)c2C(=O)c2c(NCCNCCO)ccc(NCCNCCO)c21", "note": "[Novantrone, mitoxantrone]", "values": [{"measurement": "Tumour weight as % of saline control", "setting": "[1]; PC-3 (prostatic), SCID, SEQ ID NO:1 10 mg/kg i.v. every other day, mitoxantrone (novantrone) i.v., table does not say which of two experiments", "value": 57, "unit": "%"}, {"measurement": "Antitumour effect (tumour weight, FIG. 4B)", "setting": "[1]; PC-3, SCID mice, SEQ ID NO:1 10 mg/kg i.v. every other day 17 times, mitoxantrone 0.8 mg/kg i.v. once a week for four weeks", "value": "significant delay of tumour growth"}, {"measurement": "Tumour weight as % of saline control", "setting": "[2]; first of two printed values (two independent experiments)", "value": 40, "unit": "%"}, {"measurement": "Tumour weight as % of saline control", "setting": "[2]; second of two printed values (two independent experiments)", "value": 60, "unit": "%"}, {"measurement": "Antitumour effect (tumour weight, FIG. 5B)", "setting": "[2]; DU145, SCID mice, SEQ ID NO:1 10 mg/kg i.v. every other day 14 times, mitoxantrone 0.8 mg/kg i.v. once a week for four weeks", "value": "significant delay of tumour growth"}]}
{"compound": "CCc1c2c(nc3ccc(OC(=O)N4CCC(N5CCCCC5)CC4)cc13)-c1cc3c(c(=O)n1C2)COC(=O)[C@]3(O)CC", "note": "[CPT-11, irinotecan, reference compound]", "values": [{"measurement": "Tumour weight as % of saline control", "setting": "[3]", "value": 36, "unit": "%"}, {"measurement": "Tumour weight as % of saline control", "setting": "[4]", "value": 47, "unit": "%"}]}
